Measured values: patent US20250296959A1, “B7-H3 TARGETING PEPTIDES AND CONSTRUCTS THEREOF” (Mariana Oncology Inc., priority 2024, published 2025)
Starred links: 1 amine or outer side, 2 acyl side, 3 side chain; linkers in the order of their positions; H or OH if unused. Positions of bridges follow the written chain, without caps; N, C: chain ends. Non-standard residues stand in square brackets, D forms with d. Residues, ends and D or L forms follow the SMILES beside them. Groups on a side chain read outwards from the residue. ξ: configuration not given here. *: point of attachment. Ala(piperidin-4-yl) = O=C([C@H](CC1CCN([*:3])CC1)N[*:1])[*:2]; DOTA = O=C(O)CN1CCN(CC(=O)O)CCN(CC(=O)*)CCN(CC(=O)O)CC1; Phe(4-NHCONH2) = NC(=O)Nc1ccc(C[C@H](N)C(=O)O)cc1; Trp(5-F) = N[C@@H](Cc1c[nH]c2ccc(F)cc12)C(=O)O; Trp(7-aza) = N[C@@H](Cc1c[nH]c2ncccc12)C(=O)O; X1 = C[C@@H](c1ccccc1)[C@H](N[*:1])C(=O)[*:2]; γGlu = O=C(O)[C@H](CCC(=O)[*:2])N[*:1]; 1Nal = N[C@@H](Cc1cccc2ccccc12)C(=O)O; Ala(4-THP) = N[C@@H](CC1CCOCC1)C(=O)O; Val(3-OH) = CC(C)(O)[C@H](N)C(=O)O; hCha = N[C@@H](CCC1CCCCC1)C(=O)O; tBuAla = CC(C)(C)C[C@H](N)C(=O)O; 4Pal = N[C@@H](Cc1ccncc1)C(=O)O; Gly(cPr) = N[C@H](C(=O)O)C1CC1; pGlu = O=C1CC[C@@H](C(=O)O)N1; Chg = N[C@H](C(=O)O)C1CCCCC1; Tle = CC(C)(C)[C@H](N)C(=O)O; hLeu = CC(C)CC[C@H](N)C(=O)O; αMeP = C[C@@]1(C(=O)O)CCCN1; Nle = CCCC[C@H](N)C(=O)O; ξF = NC(Cc1ccccc1)C(=O)O

Target: T1, human 4lg B7-H3 (Homo sapiens, UniProt Q5ZPR3)
T1 sequence (Q5ZPR3 29-534): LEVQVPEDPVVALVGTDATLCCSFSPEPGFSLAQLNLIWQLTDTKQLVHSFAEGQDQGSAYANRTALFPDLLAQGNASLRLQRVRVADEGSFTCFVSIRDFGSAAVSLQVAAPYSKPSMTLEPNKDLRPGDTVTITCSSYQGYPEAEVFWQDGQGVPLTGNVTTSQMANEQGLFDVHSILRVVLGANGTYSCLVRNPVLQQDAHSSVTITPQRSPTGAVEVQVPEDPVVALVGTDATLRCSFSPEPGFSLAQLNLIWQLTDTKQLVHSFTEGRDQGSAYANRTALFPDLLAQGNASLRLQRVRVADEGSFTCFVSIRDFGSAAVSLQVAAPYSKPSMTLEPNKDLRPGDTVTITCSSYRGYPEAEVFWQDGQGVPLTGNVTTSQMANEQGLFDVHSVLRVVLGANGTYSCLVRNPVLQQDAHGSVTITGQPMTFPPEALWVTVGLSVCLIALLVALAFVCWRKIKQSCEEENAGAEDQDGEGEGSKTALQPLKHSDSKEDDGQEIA
Experiment: Affinity determination by surface plasmon resonance (SPR) to 4Ig B7-H3
Settings: SPR KD—25° C., 4Ig B7-H3; 25° C. flow cell temperature

| Kd [nM] | SMILES |
| --- | --- |
| 10 to 100 | CC(=O)N[C@@H](CCC(C)C)C(=O)N[C@@H](Cc1ccc(O)cc1)C(=O)N[C@H]1CSSC[C@@H](C(=O)N[C@@H](Cc2c[nH]c3ccccc23)C(=O)N[C@@H](Cc2ccccc2)C(=O)N[C@H](C(=O)N[C@H](CCCCNC(=O)CN2CCN(CC(=O)O)CCN(CC(=O)O)CCN(CC(=O)O)CC2)C(N)=O)[C@@H](C)O)NC(=O)[C@H](Cc2ccc(O)cc2)NC(=O)[C@H](C(C)C)NC(=O)[C@H](CC(=O)O)NC(=O)[C@H](Cc2ccc(O)cc2)NC(=O)[C@H](CCCCN)NC(=O)CNC(=O)[C@H](C2CC2)NC1=O [compound 119, Ac-hLeu-Y-C-Cpg-G-K-Y-D-V-Y-C-W-F-Thr-dLys(DOTA)-CONH2] (Ac-[hLeu]YC[Gly(cPr)]GKYDVYCWFT[dK](DOTA)-NH2; disulfide 3-11) |
| < 1 | CC(=O)N[C@@H](CCC(C)C)C(=O)N[C@@H](Cc1ccc(O)cc1)C(=O)N[C@H]1CSSC[C@@H](C(=O)N[C@@H](Cc2c[nH]c3ccccc23)C(=O)N[C@@H](Cc2ccccc2)C(=O)N[C@H](C(=O)N[C@H](CCCCNC(=O)CN2CCN(CC(=O)O)CCN(CC(=O)O)CCN(CC(=O)O)CC2)C(N)=O)[C@@H](C)O)NC(=O)[C@H](Cc2ccc(O)cc2)NC(=O)[C@H](C2CCCCC2)NC(=O)[C@H](CC(=O)O)NC(=O)[C@H](Cc2ccncc2)NC(=O)[C@H](CCCCN)NC(=O)CNC(=O)[C@H](C(C)C)NC1=O [compound 153, Ac-hLeu-Y-C-V-G-K-4PyA-D-ChG-Y-C-W-F-Thr-dLys(DOTA)-CONH2] (Ac-[hLeu]YCVGK[4Pal]D[Chg]YCWFT[dK](DOTA)-NH2; disulfide 3-11) |
| 1 to 10 | CC(=O)N[C@@H](CCC(C)C)C(=O)N[C@@H](Cc1ccc(O)cc1)C(=O)N[C@H]1CSSC[C@@H](C(=O)N[C@@H](Cc2cccc3ccccc23)C(=O)N[C@@H](Cc2ccccc2)C(=O)N2CCC[C@@]2(C)C(=O)N[C@H](CCCCNC(=O)CN2CCN(CC(=O)O)CCN(CC(=O)O)CCN(CC(=O)O)CC2)C(N)=O)NC(=O)[C@H](Cc2ccc(O)cc2)NC(=O)[C@H](C(C)C)NC(=O)[C@H](CC(=O)O)NC(=O)[C@H](Cc2ccc(O)cc2)NC(=O)[C@H](CCCCN)NC(=O)CNC(=O)[C@H](C(C)(C)C)NC1=O [compound 246, Ac-hLeu-Y-C-Tbg-G-K-Y-D-V-Y-C-1Nal-F-aMePro-dLys(DOTA)-CONH2] (Ac-[hLeu]YC[Tle]GKYDVYC[1Nal]F[αMeP][dK](DOTA)-NH2; disulfide 3-11) |
| < 1 | CC(=O)N[C@@H](CCC(C)C)C(=O)N[C@@H](Cc1ccc(O)cc1)C(=O)N[C@H]1CSSC[C@@H](C(=O)N[C@@H](Cc2c[nH]c3ccc(F)cc23)C(=O)N[C@@H](Cc2ccccc2)C(=O)N[C@H](C(=O)N[C@H](CCCCNC(=O)CN2CCN(CC(=O)O)CCN(CC(=O)O)CCN(CC(=O)O)CC2)C(N)=O)[C@@H](C)O)NC(=O)[C@H](Cc2ccc(O)cc2)NC(=O)[C@H](C(C)C)NC(=O)[C@H](CC(=O)O)NC(=O)[C@H](Cc2ccncc2)NC(=O)[C@H](CCCCN)NC(=O)CNC(=O)[C@H](C(C)C)NC1=O [compound 240, Ac-hLeu-Y-C-V-G-K-4PyA-D-V-Y-C-5FW-F-Thr-dLys(DOTA)-CONH2] (Ac-[hLeu]YCVGK[4Pal]DVYC[Trp(5-F)]FT[dK](DOTA)-NH2; disulfide 3-11) |
| 10 to 100 | CC(=O)N[C@@H](CCC(C)C)C(=O)N[C@@H](Cc1ccc(O)cc1)C(=O)N[C@H]1CSSC[C@@H](C(=O)N[C@@H](Cc2c[nH]c3ncccc23)C(=O)N[C@@H](Cc2ccccc2)C(=O)N[C@H](C(=O)N[C@H](CCCCNC(=O)CN2CCN(CC(=O)O)CCN(CC(=O)O)CCN(CC(=O)O)CC2)C(N)=O)[C@@H](C)O)NC(=O)[C@H](Cc2ccc(O)cc2)NC(=O)[C@H](C(C)C)NC(=O)[C@H](CC(=O)O)NC(=O)[C@H](Cc2ccc(O)cc2)NC(=O)[C@H](CCCCN)NC(=O)CNC(=O)[C@H](C(C)C)NC1=O [compound 156, Ac-hLeu-Y-C-V-G-K-Y-D-V-Y-C-7NW-F-Thr-dLys(DOTA)-CONH2] (Ac-[hLeu]YCVGKYDVYC[Trp(7-aza)]FT[dK](DOTA)-NH2; disulfide 3-11) |
| 1 to 10 | CC(=O)N[C@@H](CCC(C)C)C(=O)N[C@@H](Cc1ccc(O)cc1)C(=O)N[C@H]1CSSC[C@@H](C(=O)N[C@@H](Cc2cccc3ccccc23)C(=O)NC(Cc2ccccc2)C(=O)N2CCC[C@H]2C(=O)N[C@H](CCCCNC(=O)CC[C@H](NC(=O)CC[C@H](NC(=O)CC[C@H](NC(=O)CN2CCN(CC(=O)O)CCN(CC(=O)O)CCN(CC(=O)O)CC2)C(=O)O)C(=O)O)C(=O)O)C(N)=O)NC(=O)[C@H](Cc2ccc(O)cc2)NC(=O)[C@H](C(C)C)NC(=O)[C@H](CC(=O)O)NC(=O)[C@H](CC2CCOCC2)NC(=O)[C@H](CCCCN)NC(=O)CNC(=O)[C@H](C(C)(C)C)NC1=O (stereo partly drawn) [compound 276, Ac-hLeu-Y-C-Tbg-G-K-ThpA-D-V-Y-C-1Nal-F-Pro-dLys(gE-gE-gE-DOTA)-CONH2] (Ac-[hLeu]YC[Tle]GK[Ala(4-THP)]DVYC[1Nal][ξF]P[dK]([γGlu-γGlu-γGlu-DOTA])-NH2; disulfide 3-11) |
| 10 to 100 | CC(=O)N[C@@H](CCC(C)C)C(=O)N[C@@H](Cc1ccc(O)cc1)C(=O)N[C@H]1CSSC[C@@H](C(=O)N[C@@H](Cc2c[nH]c3ccc(F)cc23)C(=O)N[C@@H](Cc2ccccc2)C(=O)N[C@H](C(=O)N[C@H](CCCCNC(=O)CN2CCN(CC(=O)O)CCN(CC(=O)O)CCN(CC(=O)O)CC2)C(N)=O)[C@@H](C)O)NC(=O)[C@H](Cc2ccc(O)cc2)NC(=O)[C@H](C(C)C)NC(=O)[C@H](CC(=O)O)NC(=O)[C@H](Cc2ccc(O)cc2)NC(=O)[C@H](CCCCN)NC(=O)CNC(=O)[C@H](CC(C)(C)C)NC1=O [compound 174, Ac-hLeu-Y-C-tBuAla-G-K-Y-D-V-Y-C-5FW-F-Thr-dLys(DOTA)-CONH2] (Ac-[hLeu]YC[tBuAla]GKYDVYC[Trp(5-F)]FT[dK](DOTA)-NH2; disulfide 3-11) |

Same assay, conditions: SPR KD—37° C., 4Ig B7-H3; 37° C. flow cell temperature

| Kd [nM] | SMILES |
| --- | --- |
| < 1 | CC(=O)N[C@@H](CCC(C)C)C(=O)N[C@@H](Cc1ccc(O)cc1)C(=O)N[C@H]1CSSC[C@@H](C(=O)N[C@@H](Cc2c[nH]c3ccc(F)cc23)C(=O)N[C@H](C(=O)N[C@H](C(=O)N[C@H](CCCCNC(=O)CN2CCN(CC(=O)O)CCN(CC(=O)O)CCN(CC(=O)O)CC2)C(=O)O)C(C)(C)O)[C@@H](C)c2ccccc2)NC(=O)[C@H](Cc2ccc(NC(N)=O)cc2)NC(=O)[C@H](C(C)C)NC(=O)[C@H](CC(=O)O)NC(=O)[C@H](CC2CCOCC2)NC(=O)[C@H](CC2CCNCC2)NC(=O)CNC(=O)[C@H](C(C)(C)C)NC1=O [compound 506, Ac-hLeu-Y-C-Tbg-G-PipAla-ThpA-D-V-Aph(Cbm)-C-5FW-[(2S, 3S)beta-Me-Phe]-hydroxyVal-dLys(DOTA)-COOH] (Ac-[hLeu]YC[Tle]G[Ala(piperidin-4-yl)][Ala(4-THP)]DV[Phe(4-NHCONH2)]C[Trp(5-F)][X1][Val(3-OH)][dK](DOTA)-OH; disulfide 3-11) |
| < 1 | CC(=O)N[C@@H](CCC1CCCCC1)C(=O)N[C@@H](Cc1ccc(O)cc1)C(=O)N[C@H]1CSSC[C@@H](C(=O)N[C@@H](Cc2c[nH]c3ccc(F)cc23)C(=O)N[C@@H](Cc2ccccc2)C(=O)N[C@H](C(=O)N[C@H](CCCCNC(=O)CN2CCN(CC(=O)O)CCN(CC(=O)O)CCN(CC(=O)O)CC2)C(=O)O)C(C)(C)O)NC(=O)[C@H](Cc2ccc(O)cc2)NC(=O)[C@H](C(C)C)NC(=O)[C@H](CC(=O)O)NC(=O)[C@H](CC2CCOCC2)NC(=O)[C@H](CC2CCNCC2)NC(=O)CNC(=O)[C@H](C(C)(C)C)NC1=O [compound 442, Ac-hCha-Y-C-Tbg-G-PipAla-ThpA-D-V-Y-C-5FW-F-hydroxyVal-dLys(DOTA)-COOH] (Ac-[hCha]YC[Tle]G[Ala(piperidin-4-yl)][Ala(4-THP)]DVYC[Trp(5-F)]F[Val(3-OH)][dK](DOTA)-OH; disulfide 3-11) |
| 10 to 100 | CCCC[C@H](NC(=O)[C@H](Cc1c[nH]c2ccc(F)cc12)NC(=O)[C@@H]1CSSC[C@H](NC(=O)[C@H](Cc2ccc(O)cc2)NC(=O)[C@H](CCC(C)C)NC(C)=O)C(=O)N[C@@H](C(C)(C)C)C(=O)NCC(=O)N[C@@H](CCCCN)C(=O)N[C@@H](CC2CCOCC2)C(=O)N[C@@H](CC(=O)O)C(=O)N[C@@H](C(C)C)C(=O)N[C@@H](Cc2ccc(O)cc2)C(=O)N1)C(=O)N[C@H](C(=O)N[C@H](CCCCNC(=O)CN1CCN(CC(=O)O)CCN(CC(=O)O)CCN(CC(=O)O)CC1)C(=O)O)C(C)(C)O [compound 327, Ac-hLeu-Y-C-Tbg-G-K-ThpA-D-V-Y-C-5FW-Nle-hydroxyVal-dLys(DOTA)-COOH] (Ac-[hLeu]YC[Tle]GK[Ala(4-THP)]DVYC[Trp(5-F)][Nle][Val(3-OH)][dK](DOTA)-OH; disulfide 3-11) |
| < 1 | CC(C)CC[C@H](NC(=O)[C@@H]1CCC(=O)N1)C(=O)N[C@@H](Cc1ccc(O)cc1)C(=O)N[C@H]1CSSC[C@@H](C(=O)N[C@@H](Cc2c[nH]c3ccc(F)cc23)C(=O)N[C@H](C(=O)N[C@H](C(=O)N[C@H](CCCCNC(=O)[C@H](CCC(=O)O)NC(=O)CN2CCN(CC(=O)O)CCN(CC(=O)O)CCN(CC(=O)O)CC2)C(=O)O)C(C)(C)O)[C@@H](C)c2ccccc2)NC(=O)[C@H](Cc2ccc(NC(N)=O)cc2)NC(=O)[C@H](C(C)C)NC(=O)[C@H](CC(=O)O)NC(=O)[C@H](CC2CCOCC2)NC(=O)[C@H](CC2CCNCC2)NC(=O)CNC(=O)[C@H](C(C)(C)C)NC1=O [compound 505, Pyroglutamate-hLeu-Y-C-Tbg-G-PipAla-ThpA-D-V-Aph(Cbm)-C-5FW-[(2S, 3S)beta-Me-Phe]-hydroxyVal-dLys(Glu-DOTA)-COOH] ([pGlu][hLeu]YC[Tle]G[Ala(piperidin-4-yl)][Ala(4-THP)]DV[Phe(4-NHCONH2)]C[Trp(5-F)][X1][Val(3-OH)][dK]([Glu-DOTA])-OH; disulfide 4-12) |
